# Laboratory results reported in ChEMBL document CHEMBL4376820, “Homodimeric Tobramycin Adjuvant Repurposes Novobiocin as an Effective Antibacterial Agent against Gram-Negative Bacteria” (J Med Chem, 2019).
# Activity calls are given as the source filed them. No cut-off for these calls is given here.
# How the values were obtained:
# [1] = system: Pseudomonas aeruginosa; assay: Synergistic antibacterial activity against wild type Pseudomonas aeruginosa PAO1 assessed as potentiation of ciprofloxacin-induced antibacterial effect incubated for 18 hrs by checkerboard assay; assay type: functional, organism-based
# [2] = system: Acinetobacter baumannii; assay: Antibacterial activity against Acinetobacter baumannii 110193 clinical isolate incubated for 18 hrs by CLSI protocol based assay; assay type: functional; conditions: Acinetobacter baumannii, 110193, 18 h
# [3] = system: Escherichia coli; assay: Potentiation of novobiocin-induced antibacterial activity against colistin-resistant Escherichia coli 94393 clinical isolate harboring mcr-1 gene assessed as fold reduction in novobiocin MIC incubated for 18 hrs by CLSI protocol based assay relative to novobiocin MIC; assay type: functional
# [4] = system: Pseudomonas aeruginosa; assay: Synergistic antibacterial activity against wild type Pseudomonas aeruginosa PAO1 assessed as potentiation of piperacillin-induced antibacterial effect incubated for 18 hrs by checkerboard assay relative to piperacillin alone; assay type: functional
# [5] = system: Klebsiella pneumoniae; assay: Potentiation of novobiocin-induced antibacterial activity against colistin-resistant Klebsiella pneumoniae 113250 clinical isolate assessed as fold reduction in novobiocin MIC incubated for 18 hrs by CLSI protocol based assay relative to novobiocin MIC; assay type: functional
# [6] = system: Pseudomonas aeruginosa; assay: Synergistic antibacterial activity against wild type Pseudomonas aeruginosa PAO1 assessed as potentiation of chloramphenicol-induced antibacterial effect incubated for 18 hrs by checkerboard assay relative to chloramphenicol alone; assay type: functional
# [7] = system: Enterobacter cloacae; assay: Antibacterial activity against colistin-resistant Enterobacter cloacae 118568 clinical solate incubated for 18 hrs by CLSI protocol based assay; assay type: functional; conditions: Enterobacter cloacae, 118568, 18 h
# [8] = system: Pseudomonas aeruginosa; assay: Antibacterial activity against mexAB-oprM mutant deficient Pseudomonas aeruginosa PAO200 incubated for 18 hrs by CLSI protocol based assay; assay type: functional; conditions: PAO200, 18 h
# [9] = system: Escherichia coli; assay: Potentiation of novobiocin-induced antibacterial activity against wild type Escherichia coli ATCC 25922 assessed as fold reduction in novobiocin MIC incubated for 18 hrs by CLSI protocol based assay relative to novobiocin MIC; assay type: functional
# [10] = system: Klebsiella pneumoniae; assay: Potentiation of novobiocin-induced antibacterial activity against colistin-resistant Klebsiella pneumoniae 113254 clinical isolate assessed as fold reduction in novobiocin MIC incubated for 18 hrs by CLSI protocol based assay relative to novobiocin MIC; assay type: functional
# [11] = system: Pseudomonas aeruginosa; assay: Synergistic antibacterial activity against wild type Pseudomonas aeruginosa PAO1 assessed as potentiation of levofloxacin-induced antibacterial effect incubated for 18 hrs by checkerboard assay; assay type: functional, organism-based
# [12] = system: Pseudomonas aeruginosa; assay: Synergistic antibacterial activity against wild type Pseudomonas aeruginosa PAO1 assessed as potentiation of doxycycline-induced antibacterial effect incubated for 18 hrs by checkerboard assay; assay type: functional, organism-based
# [13] = system: Pseudomonas aeruginosa; assay: Synergistic antibacterial activity against wild type Pseudomonas aeruginosa PAO1 assessed as potentiation of piperacillin-induced antibacterial effect incubated for 18 hrs by checkerboard assay; assay type: functional, organism-based
# [14] = system: Enterobacter cloacae; assay: Potentiation of novobiocin-induced antibacterial activity against colistin-resistant Enterobacter cloacae 118568 clinical solate assessed as novobiocin MIC at <= 7.1 uM incubated for 18 hrs by CLSI protocol based assay (reference value: 1024 ug/ml); assay type: functional; conditions: Enterobacter cloacae, 118568, 18 h
# [15] = system: Acinetobacter baumannii; assay: Antibacterial activity against colistin-resistant Acinetobacter baumannii ATCC 17978 mutant generated from seven serial passages by checkerboard assay; assay type: functional
# [16] = system: Pseudomonas aeruginosa; assay: Synergistic antibacterial activity against wild type Pseudomonas aeruginosa PAO1 assessed as potentiation of clindamycin-induced antibacterial effect incubated for 18 hrs by checkerboard assay relative to clindamycin alone; assay type: functional
# [17] = system: Pseudomonas aeruginosa; assay: Antibacterial activity against carbapenem-resistant Pseudomonas aeruginosa 100036 clinical isolate incubated for 18 hrs by CLSI protocol based assay; assay type: functional; conditions: Pseudomonas aeruginosa, 100036, 18 h
# [18] = system: Pseudomonas aeruginosa; assay: Bactericidal activity against Pseudomonas aeruginosa PAO1 assessed as log reduction in colony forming units per ml at 7.1 uM in LB media after 24 hrs in by time-kill assay; assay type: functional
# [19] = system: Acinetobacter baumannii; assay: Antibacterial activity against wild type Acinetobacter baumannii ATCC 17978 assessed as resistant development at 7.1 uM in presence of novobiocin by microbroth dilution method relative to control; assay type: functional
# [20] = system: Pseudomonas aeruginosa; assay: Synergistic antibacterial activity against wild type Pseudomonas aeruginosa PAO1 assessed as potentiation of minocycline-induced antibacterial effect incubated for 18 hrs by checkerboard assay relative to minocycline alone; assay type: functional
# [21] = system: Pseudomonas aeruginosa; assay: Antibacterial activity against Pseudomonas aeruginosa 259-96918 clinical isolate incubated for 18 hrs by CLSI protocol based assay; assay type: functional; conditions: 259-96918, 18 h
# [22] = system: Pseudomonas aeruginosa; assay: Antibacterial activity against wild type Pseudomonas aeruginosa PAO1 incubated for 18 hrs by CLSI protocol based assay; assay type: functional; conditions: PAO1, 18 h
# [23] = system: Pseudomonas aeruginosa; assay: Antibacterial activity against carbapenem-resistant Pseudomonas aeruginosa 262-101856 clinical isolate incubated for 18 hrs by CLSI protocol based assay; assay type: functional; conditions: 262-101856, 18 h
# [24] = system: Pseudomonas aeruginosa; assay: Synergistic antibacterial activity against wild type Pseudomonas aeruginosa PAO1 assessed as potentiation of fosfomycin-induced antibacterial effect incubated for 18 hrs by checkerboard assay; assay type: functional, organism-based
# [25] = system: HepG2; assay: Cytotoxicity against human HepG2 cells at 50 uM incubated for 48 hrs by PrestoBlue dye based fluorescence assay; assay type: cell-based; conditions: hepg2, 48 h
# [26] = system: Klebsiella pneumoniae; assay: Bactericidal activity against Klebsiella pneumoniae 116381 assessed as log reduction in colony forming units per ml at 7.1 in LB media after 24 hrs in presence of 50.4 uM novobiocin by time-kill assay; assay type: functional, organism-based
# [27] = system: Klebsiella pneumoniae; assay: Antibacterial activity against colistin-resistant Klebsiella pneumoniae 113254 clinical isolate incubated for 18 hrs by CLSI protocol based assay; assay type: functional; conditions: Klebsiella pneumoniae, 113254, 18 h
# [28] = system: Escherichia coli; assay: Potentiation of novobiocin-induced antibacterial activity against colistin-resistant Escherichia coli 94393 clinical isolate harboring mcr-1 gene assessed as novobiocin MIC at <= 7.1 uM incubated for 18 hrs by CLSI protocol based assay (reference value: 128 ug/ml); assay type: functional; conditions: Escherichia coli, 94393, 18 h
# [29] = system: Pseudomonas aeruginosa; assay: Potentiation of novobiocin-induced antibacterial activity against mexAB-oprM/mexCD-oprJ/mexEF-oprN/mexJK/mexXY/opmH mutant deficient Pseudomonas aeruginosa PAO750 assessed as novobiocin MIC at <= 7.1 uM incubated for 18 hrs by CLSI protocol based assay (reference value: 32 ug/ml); assay type: functional; conditions: PAO750, 18 h
# [30] = system: Pseudomonas aeruginosa; assay: Potentiation of novobiocin-induced antibacterial activity against carbapenem and colistin-resistant Pseudomonas aeruginosa 114228 clinical isolate assessed as novobiocin MIC at <= 7.1 uM incubated for 18 hrs by CLSI protocol based assay (reference value: 512 ug/ml); assay type: functional; conditions: Pseudomonas aeruginosa, 114228, 18 h
# [31] = system: Enterobacter cloacae; assay: Antibacterial activity against Enterobacter cloacae 117029 clinical solate incubated for 18 hrs by CLSI protocol based assay; assay type: functional; conditions: Enterobacter cloacae, 117029, 18 h
# [32] = system: Acinetobacter baumannii; assay: Potentiation of novobiocin-induced antibacterial activity against wild type Acinetobacter baumannii ATCC 17978 assessed as fold reduction in novobiocin MIC incubated for 18 hrs by CLSI protocol based assay relative to novobiocin MIC; assay type: functional
# [33] = system: Pseudomonas aeruginosa; assay: Synergistic antibacterial activity against wild type Pseudomonas aeruginosa PAO1 assessed as potentiation of meropenem-induced antibacterial effect incubated for 18 hrs by checkerboard assay relative to meropenem alone; assay type: functional
# [34] = system: Pseudomonas aeruginosa; assay: Potentiation of novobiocin-induced antibacterial activity against carbapenem-resistant Pseudomonas aeruginosa 100036 clinical isolate assessed as novobiocin MIC at <= 7.1 uM incubated for 18 hrs by CLSI protocol based assay (reference value: 1024 ug/ml); assay type: functional; conditions: Pseudomonas aeruginosa, 100036, 18 h
# [35] = system: Erythrocyte; assay: Hemolytic activity against porcine erythrocytes assessed as hemoglobin release at 1024 ug/ml incubated for 1 hr by microplate reader analysis; assay type: ADME, cell-based, Sus scrofa; conditions: pig
smiles,measurement,setting,value
NC[C@H]1O[C@H](O[C@H]2[C@H](OCCCCc3cn(CCCCO[C@@H]4[C@@H](O[C@H]5O[C@H](CO)[C@@H](O)[C@H](N)[C@H]5O)[C@H](N)C[C@H](N)[C@H]4O[C@H]4O[C@H](CN)[C@@H](O)C[C@H]4N)nn3)[C@@H](O[C@H]3O[C@H](CO)[C@@H](O)[C@H](N)[C@H]3O)[C@H](N)C[C@@H]2N)[C@H](N)C[C@@H]1O.O=C(O)C(F)(F)F.O=C(O)C(F)(F)F.O=C(O)C(F)(F)F.O=C(O)C(F)(F)F.O=C(O)C(F)(F)F.O=C(O)C(F)(F)F.O=C(O)C(F)(F)F.O=C(O)C(F)(F)F.O=C(O)C(F)(F)F.O=C(O)C(F)(F)F,Activity,[1],Dose-dependent effect
same,MIC,[2],> 128 µg/mL
same,Ratio,[3],64
same,fold change (FC),[4],4 - 128
same,Ratio,[5],32
same,fold change (FC),[6],4 - 128
same,MIC,[7],> 128 µg/mL
same,MIC,[8],> 128 µg/mL
same,Ratio,[9],32
same,Ratio,[10],16
same,Activity,[11],Dose-dependent effect
same,Activity,[12],Dose-dependent effect
same,Activity,[13],Dose-dependent effect
same,MIC,[14],32 µg/mL
same,MIC,[15],< 0.031 µg/mL
same,fold change (FC),[16],4 - 128
same,MIC,[17],> 128 µg/mL
same,Activity,[18],-3.68 CFU/ml
same,fold change (FC),[19],2
same,fold change (FC),[20],4 - 128
same,MIC,[21],> 128 µg/mL
same,MIC,[22],> 128 µg/mL
same,MIC,[23],> 128 µg/mL
same,Activity,[24],Dose-dependent effect
same,Activity,[25],Non-Toxic
same,Activity,[26],Active
same,MIC,[27],> 128 µg/mL
same,MIC,[28],2 µg/mL
same,MIC,[29],0.125 µg/mL
same,MIC,[30],16 µg/mL
same,MIC,[31],> 128 µg/mL
same,Ratio,[32],32
same,fold change (FC),[33],4 - 128
same,MIC,[34],8 µg/mL
same,Activity,[35],Non-Toxic
